Measurements as given in US20260048051A1, “TREATMENT OF INFLAMMATORY BOWEL DISEASE” (Atomwise Inc., priority 2024, published 2026).

molecular target: T1, TYK2-JH2 (Homo sapiens, UniProt P29597); experiment: TYK2-JH2 HTRF binding assay (ligand efficiency); settings: calculated from binding-assay IC50 (Equation 1)
T1 construct: TYK JH2 enzyme mix (ChemPartner: CP20210818A-BV); purchased ChemPartner CP20210818A-BV
Protocol: The following example describes the TYK2-JH2 HTRF binding assay used to determine the ligand efficiency of the TYK2 inhibitors.
To calculate ligand efficiency, Equation 1 is applied: […]
in which IC50 comes from the binding assay used to determine compound potency.
TYK JH2 enzyme mix (ChemPartner: CP20210818A-BV), tracer (ChemPartner: CP-0029472-051) and mAb Anti-6HIS Tb cryptate Gold (Cisbio: Cat No. 61HI2TLA) mix were prepared in assay buffer (10 mM MgCl2, 20 mM HEPES pH 7.5, 0.01% Triton X-100, 1 mM DTT). Compounds diluted in DMSO (Final Concentrations 0.1 to 0.000005 [μM]) and enzyme mix (0.5 nM Final Concentration) were added to 384 well plates, briefly centrifuged and incubated at room temperature for 10 minutes. After incubation, tracer mix (Tracer-35 nM final concentration); (MAb Anti-6HIS Tb cryptate Gold-0.5× final)) was added, briefly centrifuged then incubate at room temperature 60 minutes. After incubation, plates were read by Envision TR-FRET (Ex340/Em495/520) protocol (PerkinElmer-Envision 2104 multilabel plate reader).

T1 sequence (P29597 589-875 limits assumed): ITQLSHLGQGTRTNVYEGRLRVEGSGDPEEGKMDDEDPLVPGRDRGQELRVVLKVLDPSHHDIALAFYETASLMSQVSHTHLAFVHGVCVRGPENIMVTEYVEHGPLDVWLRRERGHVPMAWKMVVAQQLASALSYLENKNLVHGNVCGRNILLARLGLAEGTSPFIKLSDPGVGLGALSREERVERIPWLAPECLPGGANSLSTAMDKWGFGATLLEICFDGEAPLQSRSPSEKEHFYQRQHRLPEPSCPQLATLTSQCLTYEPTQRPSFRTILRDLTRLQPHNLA

Structure (SMILES)	Ligand Efficiency
Cc1cccc(Nc2cc(Nc3ccncc3C(N)=O)ncn2)n1 [Compound 51, 4-((6-((6-methylpyridin-2-yl)amino)pyrimidin-4-yl)amino) nicotinamide]	††† (†††: >0.39)
Cc1cccc(Nc2cc(Nc3ncccc3C(N)=O)ncn2)n1 [Compound 52, 2-((6-((6-methylpyridin-2-yl)amino)pyrimidin-4-yl)amino) nicotinamide]	††† (†††: >0.39)
Cc1cccc(Nc2cc(Nc3ccccc3NS(C)(=O)=O)ncn2)n1 [Compound 53, N-(2-(6-(6-methylpyridin-2-ylamino)pyrimidin-4-ylamino)phenyl) methanesulfonamide]	††† (†††: >0.39)
C[C@H]1COCCN1c1ccc(Nc2cc(Nc3ccccc3S(C)(=O)=O)ncn2)nc1 [Compound 54, (S)—N^4-(5-(3-methylmorpholino)pyridin-2-yl)-N^6-(2-(methylsulfonyl)phenyl)pyrimidine-4,6-diamine]	† (†: < 0.37)
Cc1cccc(Nc2cc(Nc3ccccc3C(N)=O)nc(N)n2)n1 [Compound 55, 2-((2-amino-6-((6-methylpyridin-2-yl)amino)pyrimidin-4-yl)amino)benzamide]	†† (††: 0.37-0.39)
Cc1cccc(Nc2cc(Nc3ccccc3S(C)(=O)=O)nc(C)n2)n1 [Compound 56, 2-methyl-N^4-(6-methylpyridin-2-yl)-N^6-(2-(methylsulfonyl)phenyl) pyrimidine-4,6-diamine]	† (†: < 0.37)
Cc1cccc(Nc2cc(Nc3ccccc3S(C)(=O)=O)nc(N)n2)n1 [Compound 57, N^4-(6-methylpyridin-2-yl)-N^6-(2-(methylsulfonyl)phenyl)pyrimidine-2,4,6-triamine]	††† (†††: >0.39)
Cc1ccnc(Nc2cc(Nc3ccccc3C(N)=O)ncn2)n1 [Compound 58, 2-(6-(4-methylpyrimidin-2-ylamino)pyrimidin-4-ylamino)benzamide]	††† (†††: >0.39)
Cc1cccc(Nc2cc(Nc3cccnc3S(C)(=O)=O)ncn2)n1 [Compound 59, N^4-(6-methylpyridin-2-yl)-N^6-(2-(methylsulfonyl)pyridin-3-yl) pyrimidine-4,6-diamine]	††† (†††: >0.39)
Cc1cccc(Nc2cc(Nc3ccncc3S(C)(=O)=O)ncn2)n1 [Compound 60, N^4-(6-methylpyridin-2-yl)-N^6-(3-(methylsulfonyl)pyridin-4-yl) pyrimidine-4,6-diamine]	††† (†††: >0.39)
Cc1cccc(Nc2cc(Nc3cnccc3C(N)=O)ncn2)n1 [Compound 61, 3-((6-((6-methylpyridin-2-yl)amino)pyrimidin-4-yl)amino) isonicotinamide]	††† (†††: >0.39)
Cc1ccnc(Nc2cc(Nc3ccccc3P(C)(C)=O)ncn2)c1 [Compound 63, N^4-(2-(dimethylphosphoryl)phenyl)-N^6-(4-methylpyridin-2-yl) pyrimidine-4,6-diamine]	††† (†††: >0.39)
CS(=O)(=O)c1cccnc1Nc1cc(Nc2ncccc2F)ncn1 [Compound 64, N^4-(3-fluoropyridin-2-yl)-N^6-(3-(methylsulfonyl)pyridin-2-yl) pyrimidine-4,6-diamine]	††† (†††: >0.39)
COc1ccnc(Nc2cc(Nc3cccc(C)n3)ncn2)c1S(C)(=O)=O [Compound 65, N^4-(4-methoxy-3-(methylsulfonyl)pyridin-2-yl)-N^6-(6-methylpyridin-2-yl)pyrimidine-4,6-diamine]	††† (†††: >0.39)
Cn1ccc(Nc2cc(Nc3ccccc3S(C)(=O)=O)ncn2)n1 [Compound 66, N^4-(1-methyl-1H-pyrazol-3-yl)-N^6-(2-(methylsulfonyl)phenyl) pyrimidine-4,6-diamine]	††† (†††: >0.39)
Cn1ccc(Nc2cc(Nc3ccccc3C(N)=O)ncn2)n1 [Compound 67, 2-((6-((1-methyl-1H-pyrazol-3-yl)amino)pyrimidin-4-yl)amino)benzamide]	††† (†††: >0.39)
Cc1cccnc1Nc1cc(Nc2ccccc2C(N)=O)ncn1 [Compound 68, 2-((6-((3-methylpyridin-2-yl)amino)pyrimidin-4-yl)amino) benzamide]	††† (†††: >0.39)
CS(=O)(=O)c1ccccc1Nc1cc(NC(=O)C2CC2)ncn1 [Compound 69, N^4-(cyclopropylcarbonyl)-N^6-(2-(methylsulfonyl)phenyl)pyrimidine-4,6-diamine]	††† (†††: >0.39)
COc1ccc(Nc2cc(NC(=O)C3CC3)ncn2)c(C(N)=O)c1 [Compound 70, 2-((6-(cyclopropanecarboxamido)pyrimidin-4-yl)amino)-5-methoxy benzamide]	††† (†††: >0.39)
Cc1cccc(Nc2cc(Nc3ncccc3CS(C)(=O)=O)ncn2)n1 [Compound 71, N^4-(6-methylpyridin-2-yl)-N^6-(3-((methylsulfonyl)methyl)pyridin-2-yl)pyrimidine-4,6-diamine]	††† (†††: >0.39)
Cn1cc(-c2ccnc(Nc3cc(Nc4ccc(NC5(C)COC5)cn4)ncn3)c2S(C)(=O)=O)cn1 [Compound 72, N^4-(4-(1-methyl-1H-pyrazol-4-yl)-3-(methylsulfonyl)pyridin-2-yl)-N^6-(5-(3-methyloxetan-3-ylamino)pyridin-2-yl)pyrimidine-4,6-diamine]	† (†: < 0.37)
CC1(Nc2ccc(Nc3cc(Nc4ncccc4S(C)(=N)=O)ncn3)nc2)COC1 (centres unmarked) [Compound 73, N^4-(5-((3-methyloxetan-3-yl)amino)pyridin-2-yl)-N^6-(3-(S-methylsulfonimidoyl)pyridin-2-yl)pyrimidine-4,6-diamine]	††† (†††: >0.39)
CC1(Nc2cnc(Nc3cc(Nc4ncccc4S(C)(=O)=O)ncn3)cn2)COC1 [Compound 74, N^4-(5-(3-methyloxetan-3-ylamino)pyrazin-2-yl)-N^6-(3-(methylsulfonyl)pyridin-2-yl)pyrimidine-4,6-diamine]	††† (†††: >0.39)
CC(c1ccc(Nc2ncnc(Nc3ncccc3S(C)(=O)=O)c2F)nc1)N1CC2(COC2)C1 (centres unmarked) [Compound 75, N^4-(5-(1-(2-oxa-6-azaspiro[3.3]heptan-6-yl)ethyl)pyridin-2-yl)-5-fluoro-N^6-(3-(methylsulfonyl)pyridin-2-yl)pyrimidine-4,6-diamine]	† (†: < 0.37)
COc1ccnc(Nc2cc(Nc3ccc(C(C)N4CC5(COC5)C4)cn3)ncn2)c1S(C)(=O)=O (centres unmarked) [Compound 76, N^4-(5-(1-(2-oxa-6-azaspiro[3.3]heptan-6-yl)ethyl)pyridin-2-yl)-N^6-(4-methoxy-3-(methylsulfonyl)pyridin-2-yl)pyrimidine-4,6-diamine]	† (†: < 0.37)
Cc1cc(Nc2cc(Nc3ncccc3S(C)(=O)=O)ncn2)nnc1C(C)N1CC2(COC2)C1 (centres unmarked) [Compound 77, N^4-(6-(1-(2-oxa-6-azaspiro[3.3]heptan-6-yl)ethyl)-5-methylpyridazin-3-yl)-N^6-(3-(methylsulfonyl)pyridin-2-yl)pyrimidine-4,6-diamine]	†† (††: 0.37-0.39)
CC(c1ccc(Nc2cc(Nc3ncc(C4COC4)cc3S(C)(=O)=O)ncn2)nc1)N1CC2(COC2)C1 (centres unmarked) [Compound 78, N^4-(5-(1-(2-oxa-6-azaspiro[3.3]heptan-6-yl)ethyl)pyridin-2-yl)-N^6-(3-(methylsulfonyl)-5-(oxetan-3-yl)pyridin-2-yl)pyrimidine-4,6-diamine]	† (†: < 0.37)
CS(=O)(=O)c1ccccc1Nc1cc(Nc2ccc(C(=O)NC3COC3)cn2)ncn1 [Compound 79, 6-((6-((2-(methylsulfonyl)phenyl)amino)pyrimidin-4-yl)amino)-N-(oxetan-3-yl)nicotinamide]	†† (††: 0.37-0.39)
CS(=O)(=O)c1ccccc1Nc1cc(Nc2ccc(NC3COC3)cn2)ncn1 [Compound 80, N^4-(2-(methylsulfonyl)phenyl)-N^6-(5-(oxetan-3-ylamino)pyridin-2-yl) pyrimidine-4,6-diamine]	† (†: < 0.37)
